Measurements as given in patent US8907103B2, “Glucagon antagonists” (Metabasis Therapeutics, Inc., priority 2008, dated 2014).
pEC50, pIC50: −log10 of the molar value. Read-outs that look alike come from different tables or passages of the source.

Experiments:
[1] = biological target: T1, human glucagon receptor (Homo sapiens, UniProt P47871); assay: Human glucagon receptor affinity ([125I]glucagon displacement, membrane preparation); assay type: binding; conditions: for pIC50: human glucagon receptor binding assay, stereo column says racemic or R-isomer, read-out: Hu IC50
T1 construct: host or cells: human liver samples or a recombinant cell line (alternatives)
Experimental: Compounds provided herein are dissolved in a suitable solvent (e.g., dimethlysulfoxide) at a concentration of 10 mM and then diluted in buffer (e.g., 50 mM Hepes, pH 7.4, 5 mM MgCl2, 1 mM CaCl2, and 0.2% BSA) to concentrations ranging from 1 nM to 100 μM. Compounds (20 μL/well) and [^125I]glucagon at the final concentration of 0.125 nM (20 μl/well) (Perkin Elmer) are added to and mixed in wells of a 96-well plate (Costar, Corning) containing 120 μL of buffer. Next, an appropriate aliquot of a membrane preparation containing the human glucagon receptor (isolated from human liver samples or obtained from a recombinant cell line) is added to the wells. The binding mixtures are incubated for 2 hrs at room temperature. In the meantime, a MultiScreen 96-well filter plate (Millipore) is treated with 200 μL of the buffer, which is vacuumed through the filter just before the binding mixtures are transferred to the plate. At the end of incubation, binding mixtures are transferred to the wells of the MultiScreen 96-well filter plate and filtered through by applying vacuum. The plate is washed once with 200 μL per well of the buffer, and the filters are dried and counted using a gamma counter.

[2] = system: human hepatocytes; assay: Functional antagonism of glucagon-stimulated glucose production in hepatocytes; assay type: cell-based; conditions: human hepatocyte assay, 1 nM glucagon; read-out: Hu Hepatocyte EC50
Experimental: Primary human, monkey, dog, rat, or mouse hepatocytes are seeded onto collagen-coated 24-well plates in Williams E medium (supplemented with 10% fetal bovine serum) and incubated at 37° C. overnight in M199 medium (supplemented with 15 mM glucose and 10 nM human insulin). The following day cells are washed twice with a glucose-free Kreb-bicarbonate buffer, pH 7.4, containing 0.1% BSA. Cells are then incubated at 37° C. with the aforementioned buffer containing 1 nM glucagon and varying concentrations of a glucagon antagonist (0-100 microM). Control wells without glucagon or antagonist are also included. After 1 hour, an aliquot of the medium is removed and analyzed for glucose content by means of the glucose oxidase method. The background glucose levels observed in the control wells are subtracted from the glucagon and antagonist containing wells. A graph of % glucose concentration vs drug concentration is plotted and an EC50 value for inhibition of glucose production generated using Sigmaplot software (SAS, Cary, N.C.). Alternatively, intracellular cAMP levels are measured using standard kits and EC50 values determined by plotting these levels against drug concentration. Antagonists of the glucagon receptor inhibit glucagon-induced cAMP production.

[3] = R-isomer, read-out: Hu 1050 (nM) R
[4] = S-isomer, read-out: Hu 1050 (nM) S

T1 sequence (P47871 26-477): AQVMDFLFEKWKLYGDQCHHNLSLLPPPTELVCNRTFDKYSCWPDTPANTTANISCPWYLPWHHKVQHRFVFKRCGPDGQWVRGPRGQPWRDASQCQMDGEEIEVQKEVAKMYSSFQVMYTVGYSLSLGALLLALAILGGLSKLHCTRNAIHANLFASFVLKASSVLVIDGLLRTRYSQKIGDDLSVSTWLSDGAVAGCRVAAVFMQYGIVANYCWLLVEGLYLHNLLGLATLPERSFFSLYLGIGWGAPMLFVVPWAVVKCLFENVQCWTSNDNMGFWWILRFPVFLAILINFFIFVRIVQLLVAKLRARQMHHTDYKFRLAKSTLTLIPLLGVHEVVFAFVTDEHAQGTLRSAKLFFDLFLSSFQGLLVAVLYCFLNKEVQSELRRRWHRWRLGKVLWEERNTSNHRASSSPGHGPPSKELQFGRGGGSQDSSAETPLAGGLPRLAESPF

SMILES	pIC50 [1]	IC50 [1, 3] [nM]	IC50 [1, 4] [nM]	pEC50 [2]
CC(C)(C)c1ccc(-c2ccc(C(Cc3ccc(C(=O)NCCS(=O)(=O)O)cc3)C(=O)Nc3ccc(-c4ccccc4Cl)cc3)cc2)cc1 (racemic)	7.74	–	–	6.39
CC(C)(C)c1ccc(-c2ccc(C(Cc3ccc(C(=O)NCCS(=O)(=O)O)cc3)C(=O)Nc3ccc(-c4cc(Cl)cc(Cl)c4)cc3)cc2)cc1 (racemic)	7.82	–	–	6.88
Cc1cc(C)c2oc(-c3ccc(NC(=O)C(Cc4ccc(C(=O)NCCS(=O)(=O)O)cc4)c4ccc(-c5ccc(C(C)(C)C)cc5)cc4)cc3)nc2c1 (racemic)	7.96	–	–	6.25
CC1(C)CC=C(c2ccc(NC(=O)C(Cc3ccc(C(=O)NCCS(=O)(=O)O)cc3)c3ccc(-c4ccc(C(C)(C)C)cc4)cc3)cc2)CC1 (racemic)	7.74	–	–	7.22
CC(C)(C)c1ccc(-c2ccc(C(Cc3ccc(C(=O)NCCS(=O)(=O)O)cc3)C(=O)Nc3ccc(-c4cccc(Cl)c4)cc3)cc2)cc1 (racemic)	7.92	–	–	6.18
Cc1ccc(-c2ccc(NC(=O)C(Cc3ccc(C(=O)NCCS(=O)(=O)O)cc3)c3ccc(C4=CCC(C)(C)CC4)cc3)c(Cl)c2)cc1Cl (racemic)	7.80	–	–	–
CC(C)(C)C1CC=C(c2ccc(C(Cc3ccc(C(=O)NCCS(=O)(=O)O)cc3)C(=O)Nc3ccc(-c4nc5ccccc5o4)cc3)cc2)CC1 (racemic)	8.10	–	–	6.94
CC(C)(C)C1CCC(c2ccc(C(Cc3ccc(C(=O)NCCS(=O)(=O)O)cc3)C(=O)Nc3ccc(-c4ccc(C(F)(F)F)cc4Cl)cc3)cc2)CC1 (racemic)	7.92	–	–	7.52
O=C(NCCS(=O)(=O)O)c1ccc(CC(C(=O)Nc2ccc(-c3ccc(C(F)(F)F)cc3Cl)cc2)c2ccc(C3=CCCCC3)cc2)cc1 (racemic)	7.80	–	–	–
Cc1cc(C(F)(F)F)ccc1-c1ccc(NC(=O)C(Cc2ccc(C(=O)NCCS(=O)(=O)O)cc2)c2ccc(C3=CCCCC3)cc2)cc1 (racemic)	7.80	–	–	7.11
Cc1cc(Cl)ccc1-c1ccc(NC(=O)C(Cc2ccc(C(=O)NCCS(=O)(=O)O)cc2)c2cccc(C3=CCC(C)(C)C=C3)c2)cc1 (racemic)	7.72	–	–	6.97
CC1(C)C=CC(c2cccc(C(Cc3ccc(C(=O)NCCS(=O)(=O)O)cc3)C(=O)Nc3ccc(-c4ccc(Cl)cc4Cl)cc3)c2)=CC1 (racemic)	7.74	–	–	7.21
Cc1cc(NC(=O)C(Cc2ccc(C(=O)NCCS(=O)(=O)O)cc2)c2ccc(-c3ccc(C(C)(C)C)cc3)cc2)ccc1-c1nc2ccccc2o1 (racemic)	8.10	–	–	6.78
CC(C)(C)c1ccc(-c2ccc(C(Cc3ccc(C(=O)NCCS(=O)(=O)O)cc3)C(=O)Nc3ccc(-c4ccc(Cl)c(Cl)c4)cc3)cc2)cc1 (racemic)	8.00	–	–	–
Cc1ccc(Cl)cc1-c1ccc(NC(=O)C(Cc2ccc(C(=O)NCCS(=O)(=O)O)cc2)c2ccc(-c3ccc(C(C)(C)C)cc3)cc2)cc1 (racemic)	8.00	–	–	6.72
CC1(C)CC=C(c2ccc(C(Cc3ccc(C(=O)NCCS(=O)(=O)O)cc3)C(=O)Nc3ccc(-c4ccc(C(C)(C)C)cc4)cc3Cl)cc2)CC1 (racemic)	8.00	–	–	–
CC(C)(C)C1CCC(c2ccc(C(Cc3ccc(C(=O)NCCS(=O)(=O)O)cc3)C(=O)Nc3ccc(-c4ccc(Cl)cc4Cl)cc3)cc2)CC1 (racemic) [drawing 110]	7.74	–	–	–
Cc1cc(Cl)ccc1-c1ccc(NC(=O)C(Cc2ccc(C(=O)NCCS(=O)(=O)O)cc2)c2ccc(C3=CCC(C(C)(C)C)CC3)cc2)cc1 (single isomer, unassigned) [drawing 129 R]	–	7	–	–
Cc1cccc2oc(-c3ccc(NC(=O)C(Cc4ccc(C(=O)NCCS(=O)(=O)O)cc4)c4ccc(-c5ccc(C(C)(C)C)cc5)cc4)cc3)nc12 (single isomer, unassigned) [drawing 135 R]	–	10	–	–

Second part, led by results:

pIC50 [1]	IC50 [1, 3] [nM]	IC50 [1, 4] [nM]	SMILES	pEC50 [2]
7.74	–	–	CC12CCC(C=C1c1ccc(C(Cc3ccc(C(=O)NCCS(=O)(=O)O)cc3)C(=O)Nc3ccc(-c4nc5ccccc5o4)cc3)cc1)C2(C)C (racemic)	7.57
7.82	–	–	Cc1cc(Cl)ccc1-c1ccc(NC(=O)C(Cc2ccc(C(=O)NCCS(=O)(=O)O)cc2)c2cccc(-c3ccc(C(C)(C)C)cc3)c2)cc1 (racemic)	6.48
7.82	–	–	CC(C)(C)c1ccc(-c2cccc(C(Cc3ccc(C(=O)NCCS(=O)(=O)O)cc3)C(=O)Nc3ccc(-c4ccc(Cl)cc4Cl)cc3)c2)cc1 (racemic)	6.67
7.72	–	–	Cc1cc(Cl)ccc1-c1ccc(NC(=O)C(Cc2ccc(C(=O)NCCS(=O)(=O)O)cc2)c2ccc(-c3ccc(C(C)(C)C)cc3)cc2)c(Cl)c1 (racemic)	–
8.00	–	–	Cc1ccc(-c2ccc(NC(=O)C(Cc3ccc(C(=O)NCCS(=O)(=O)O)cc3)c3ccc(-c4ccc(C(C)(C)C)cc4)cc3)cc2)cc1Cl (racemic)	–
7.74	–	–	CC(C)(C)C1CCC(c2ccc(C(Cc3ccc(C(=O)NCCS(=O)(=O)O)cc3)C(=O)Nc3ccc(-c4nc5ccccc5o4)cc3)cc2)CC1 (racemic)	6.79
7.82	–	–	CC1(C)CC=C(c2ccc(C(Cc3ccc(C(=O)NCCS(=O)(=O)O)cc3)C(=O)Nc3ccc(-c4ccc(C(F)(F)F)cc4Cl)cc3)cc2)CC1 (racemic)	6.86
7.70	–	–	Cc1ccc(-c2cc(Cl)c(NC(=O)C(Cc3ccc(C(=O)NCCS(=O)(=O)O)cc3)c3ccc(C=CC(C)(C)C)cc3)cc2C)cc1F (racemic)	6.84
7.85	–	–	Cc1cc(Cl)ccc1-c1ccc(NC(=O)C(Cc2ccc(C(=O)NCCS(=O)(=O)O)cc2)c2cccc(C3=CCCCC3)c2)cc1 (racemic)	7.49
7.92	–	–	CC(C)(C)c1ccc(-c2ccc(C(Cc3ccc(C(=O)NCCS(=O)(=O)O)cc3)C(=O)Nc3ccc(-c4nc5ccccc5o4)cc3)cc2)cc1 (racemic)	6.62
7.92	–	–	CC(C)(C)c1ccc(-c2ccc(C(Cc3ccc(C(=O)NCCS(=O)(=O)O)cc3)C(=O)Nc3ccc(C4=CCC(C(C)(C)C)CC4)cc3)cc2)cc1 (racemic)	–
7.74	–	–	CC(C)(C)c1ccc(-c2ccc(C(Cc3ccc(C(=O)NCCS(=O)(=O)O)cc3)C(=O)Nc3ccc(-c4c(Cl)cccc4Cl)cc3)cc2)cc1 (racemic)	–
7.92	–	–	Cc1cc(C)c(-c2ccc(NC(=O)C(Cc3ccc(C(=O)NCCS(=O)(=O)O)cc3)c3ccc(C4=CCC(C)(C)CC4)cc3)cc2)c(C)c1 (racemic)	–
7.85	–	–	Cc1ccc(-c2ccc(NC(=O)C(Cc3ccc(C(=O)NCCS(=O)(=O)O)cc3)c3ccc(C4=CCC(C)(C)CC4)cc3)c(Cl)c2)c(C)c1 (racemic)	–
–	14	–	Cc1cc(Cl)ccc1-c1ccc(NC(=O)C(Cc2ccc(C(=O)NCCS(=O)(=O)O)cc2)c2ccc(C=CC(C)(C)C)cc2)cc1 (single isomer, unassigned) [drawing 125 R]	–
–	–	61	Cc1cc(Cl)ccc1-c1ccc(NC(=O)C(Cc2ccc(C(=O)NCCS(=O)(=O)O)cc2)c2ccc(C=CC(C)(C)C)cc2)cc1 (single isomer, unassigned) [drawing 125 S]	–
–	6	–	Cc1cc(Cl)ccc1-c1ccc(NC(=O)C(Cc2ccc(C(=O)NCCS(=O)(=O)O)cc2)c2ccc(C3=CCC(C(C)(C)C)CC3)cc2)cc1 (single isomer, unassigned) [drawing 127 R]	–
–	–	20	Cc1cc(Cl)ccc1-c1ccc(NC(=O)C(Cc2ccc(C(=O)NCCS(=O)(=O)O)cc2)c2ccc(C3=CCC(C(C)(C)C)CC3)cc2)cc1 (single isomer, unassigned) [drawing 127 S]	–
–	–	19	Cc1cc(Cl)ccc1-c1ccc(NC(=O)C(Cc2ccc(C(=O)NCCS(=O)(=O)O)cc2)c2ccc(C3=CCC(C(C)(C)C)CC3)cc2)cc1 (single isomer, unassigned) [drawing 129 S]	–
–	–	49	Cc1cccc2oc(-c3ccc(NC(=O)C(Cc4ccc(C(=O)NCCS(=O)(=O)O)cc4)c4ccc(-c5ccc(C(C)(C)C)cc5)cc4)cc3)nc12 (single isomer, unassigned) [drawing 135 S]	–
–	11	–	Cc1cc(Cl)ccc1-c1ccc(NC(=O)C(Cc2ccc(C(=O)NCCS(=O)(=O)O)cc2)c2ccc(-c3ccc(C(C)(C)C)cc3)cc2)cc1 (stereo not shown) [drawing 131 R]	–
–	10	–	Cc1cc(Cl)ccc1-c1ccc(NC(=O)C(Cc2ccc(C(=O)NCCS(=O)(=O)O)cc2)c2ccc(C3=CCC(C)(C)CC3)cc2)cc1 (stereo not shown) [drawing 133 R]	–
